Values of other authors as cited in patent US9304123B2, “Biomarkers used to detect and monitor neurological autoimmune diseases” (NUtech Ventures, priority 2012, dated 2016).

Test system: EAE
Details: animal models

CN(C)C(=N)N=C(N)N [Metformin]
effect on EAE progression: attenuate EAE progression
